Data: PubChem BioAssay (NCI)
Values joined by “and” are separate entries in the source; they are usually repeats but may differ in a detail not shown here. Equal values may be shown once.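 These data come from cells grown in 96-well plates and exposed to compound for 48 hours at five concentrations. GI50 is the concentration that inhibits growth by half. The concentration for full growth arrest is given as TGI.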

Tests used:
Assay in all cases: growth of human tumour cells (NCI), 48 h
U251 CNS = test system: U251 CNS
SN12C renal = test system: SN12C renal
HCT-15 colon = test system: HCT-15 colon
HS 578T breast = test system: HS 578T breast
SK-MEL-28 melanoma = test system: SK-MEL-28 melanoma
K-562 leukemia = test system: K-562 leukemia
SK-MEL-2 melanoma = test system: SK-MEL-2 melanoma
LOX IMVI melanoma = test system: LOX IMVI melanoma
SF-539 CNS = test system: SF-539 CNS
NCI-H522 lung = test system: NCI-H522 lung

SMILES | TGI (U251 CNS) | GI50 (SN12C renal) | TGI (SN12C renal) | GI50 (HCT-15 colon) | TGI (HCT-15 colon) | TGI (HS 578T breast) | TGI (SK-MEL-28 melanoma) | GI50 (K-562 leukemia) | TGI (K-562 leukemia) | GI50 (SK-MEL-2 melanoma) | TGI (SK-MEL-2 melanoma) | TGI (LOX IMVI melanoma) | GI50 (SF-539 CNS) | TGI (SF-539 CNS) | TGI (NCI-H522 lung) | GI50 (U251 CNS) | GI50 (NCI-H522 lung) | GI50 (SK-MEL-28 melanoma) | GI50 (LOX IMVI melanoma)
CCN(CC)CCNc1n[n+]([O-])c2cc([N+](=O)[O-])ccc2[n+]1[O-] | 3.1 µM and 2.73 µM and 2.78 µM | 0.675 µM and 0.249 µM and 0.255 µM | 2.97 µM and 2.33 µM and 2.58 µM | 0.87 µM and 0.287 µM and 0.273 µM | 5.12 µM and 3.16 µM and 2.74 µM | 54.2 µM | 22.4 µM and 22.8 µM and 14.5 µM | 0.296 µM and 0.199 µM and 0.124 µM | 1.23 µM and 1.28 µM and 0.926 µM | 1.39 µM and 0.639 µM and 0.575 µM | 3 µM and 2.02 µM and 2.88 µM | 2.06 µM and 1.96 µM and 1.83 µM | 0.809 µM and 0.402 µM and 0.355 µM | 2.57 µM and 1.36 µM and 1.38 µM |  |  |  |  | 
C=C1C(=O)O[C@@H]2C[C@@]3(C)[C@H](O)CCC(=C)[C@@H]3C[C@H]12 | 26.2 µM |  | 23.2 µM |  | 35.1 µM |  | 20.2 µM |  | 10.2 µM |  | 40 µM | 20.7 µM |  | 23.6 µM | 17.6 µM |  |  |  | 
C1CN2CCO[SiH](O1)OCC2 | > 100 µM |  | > 100 µM |  |  |  | > 100 µM |  | > 100 µM |  | > 100 µM |  |  | > 100 µM | > 100 µM |  |  |  | 
CCc1c(OC(C)=O)c2c(NC3OC(COC(C)=O)C(OC(C)=O)C(OC(C)=O)C3OC(C)=O)nc(SC)nc2oc1=O (centres undefined) | > 100 µM |  | > 100 µM |  | > 100 µM |  |  |  | > 100 µM |  | > 100 µM | > 100 µM |  | > 100 µM |  |  |  |  | 
CC(C)N(C(=O)C12C3C4C1C1C4(C#N)C3C12C(=O)O)C(C)C (centres undefined) | > 100 µM |  | > 100 µM |  | > 68.2 µM |  | > 100 µM |  | > 100 µM |  | > 100 µM | > 100 µM |  | > 100 µM | > 100 µM |  |  |  | 
O=C1OC(=O)c2c1nc1ccccc1c2-c1ccccc1 | > 100 µM |  | > 100 µM |  | > 100 µM |  |  |  | > 100 µM |  | > 100 µM | > 100 µM |  | > 100 µM | > 100 µM |  |  |  | 
O=C(Nc1ccccc1C(=O)NC(=O)c1ccccc1NC(=O)c1ccccc1)c1ccccc1 | 18.8 µM |  | 17.2 µM |  | 34.3 µM |  | 10.6 µM |  | 18.3 µM |  | 3.93 µM | 13.9 µM |  | 18.9 µM |  |  |  |  | 
CC1CCCP(=O)(c2ccccc2)CCC1 (centres undefined) | > 100 µM |  | > 100 µM |  | > 100 µM |  | > 100 µM |  | > 100 µM |  | > 100 µM | > 100 µM |  | > 100 µM |  |  |  |  | 
O=[N+]([O-])c1cccnc1S(=O)(=O)c1ccccc1 | 22.8 µM |  | 23.5 µM |  | 21.7 µM |  | 34.6 µM |  | > 43.8 µM |  | 31.1 µM | 15.7 µM |  | 24 µM | 2.82 µM |  |  |  | 
N#CC(C(=O)Nc1ccccc1)C1=C(Cl)C(=O)c2ccccc2C1=O (centres undefined) | 61.5 µM |  | 29.1 µM |  | 32.6 µM |  | 32.1 µM |  | 52.5 µM |  | 32.7 µM | 29.8 µM |  | 28.8 µM | 29.3 µM |  |  |  | 
CCCCCCCCCC1CC(=O)OC23CCCC(=O)C12O3 (centres undefined) | > 100 µM |  | > 100 µM |  | > 100 µM |  | > 100 µM |  | > 100 µM |  | > 100 µM | > 100 µM |  | > 100 µM | > 100 µM |  |  |  | 
COc1ccccc1/C=C(\NC(=O)c1ccccc1)c1nc2ccc(Cl)cc2[nH]1 | > 100 µM |  | > 100 µM |  | > 100 µM |  | > 100 µM |  | > 100 µM |  | 65.7 µM | > 100 µM |  | > 100 µM | 49.5 µM |  |  |  | 
CCOC1c2nc3ccccc3nc2-c2ccccc2N1C(C)=O (centres undefined) | > 100 µM |  | > 100 µM |  | > 100 µM |  | > 100 µM |  | > 100 µM |  | > 100 µM |  |  | > 100 µM |  |  |  |  | 
Cc1ccc(S(=O)(=O)Nc2ccccc2C(C)(C)C)cc1 | 43.3 µM |  |  |  | 54.6 µM |  | 43.2 µM |  | 50.1 µM |  | 60.2 µM |  |  | 33.9 µM |  |  |  |  | 
OCC1OC(OC2(CO)OC(CO)C(O)C2O)C(O)C(O)C1O (centres undefined) | > 100 µM | > 100 µM | > 100 µM | > 100 µM | > 100 µM |  | > 100 µM | > 100 µM | > 100 µM | > 100 µM | > 100 µM | > 100 µM | > 100 µM | > 100 µM | > 100 µM | > 100 µM | > 100 µM | > 100 µM | > 100 µM
O=C1C2C(C(=O)N1Cc1ccccc1)N(Cc1ccccc1)C(=O)N2Cc1ccccc1 (centres undefined) | > 100 µM |  | > 100 µM |  | > 100 µM |  | > 100 µM |  | > 100 µM |  |  | > 100 µM |  | > 100 µM | > 100 µM |  |  |  | 
Cc1ccccc1Nc1cc(O)c2c(=O)cc(-c3ccccc3)oc2c1 | > 100 µM | 4.05 µM | > 100 µM | 0.678 µM | > 100 µM |  |  | 0.469 µM | > 100 µM | 2.44 µM | > 100 µM | > 100 µM | 3.1 µM | > 100 µM | > 100 µM | 3.04 µM | 1.79 µM |  | 2.75 µM
CS(=O)(=O)OCCN1CCN(C(=O)c2ccc(Cl)c3c(Nc4ccc(S(=O)(=O)N=C(N)N)cc4)c4ccccc4nc23)CC1 | > 100 µM |  | > 100 µM |  | > 100 µM |  | > 100 µM |  | > 100 µM |  | > 100 µM |  |  | > 100 µM |  |  |  |  | 
Cc1ccc(-n2c3nc(=O)n(C)c(=O)c-3nc3ccccc32)c(C)c1 | 32.1 µM |  | 22.8 µM |  | 22.5 µM |  |  |  | 40.6 µM |  | 27.5 µM | 33.9 µM |  | 26.4 µM | 29 µM |  |  |  | 
CCOC(=O)C[C@@]12CCCN[C@]1(C)CCc1ccccc12 | > 100 µM |  | > 100 µM |  | > 100 µM |  | > 100 µM |  | > 100 µM |  | > 100 µM | > 100 µM |  | > 100 µM | > 100 µM |  |  |  | 
CCC(Oc1ccc(OC)c2c1C(=O)CCC2)C(=O)O (centres undefined) | > 100 µM |  | > 100 µM |  | > 100 µM |  | > 100 µM |  | > 100 µM |  | > 100 µM | > 100 µM |  | > 100 µM | > 100 µM |  |  |  | 
